Structures are written as SMILES.

The record followed here is publication PMC5856881, “UGT79B31 is responsible for the final modification step of pollen-specific flavonoid biosynthesis in Petunia hybrida” (Planta, 2017).

For this assay, the target named is T1, UGT79B31 (Petunia x hybrida, UniProt A0A2Z6FLE1).
T1 construct: full-length, cloned from petunia pollen cDNA; His/ProS2 fusion (pColdProS2) in E. coli BL21star (DE3), tag cleaved with HRV3C protease; partially purified
Description: end-product inhibition, UPLC/PDA/QTOF/MS glucosyltransferase assay. In kind it is biochemical. The note with it: read-out: Relative activity (%). From the text:
end-product inhibition, UPLC/PDA/QTOF/MS glucosyltransferase assay on UGT79B31

T1 sequence (A0A2Z6FLE1 1-455): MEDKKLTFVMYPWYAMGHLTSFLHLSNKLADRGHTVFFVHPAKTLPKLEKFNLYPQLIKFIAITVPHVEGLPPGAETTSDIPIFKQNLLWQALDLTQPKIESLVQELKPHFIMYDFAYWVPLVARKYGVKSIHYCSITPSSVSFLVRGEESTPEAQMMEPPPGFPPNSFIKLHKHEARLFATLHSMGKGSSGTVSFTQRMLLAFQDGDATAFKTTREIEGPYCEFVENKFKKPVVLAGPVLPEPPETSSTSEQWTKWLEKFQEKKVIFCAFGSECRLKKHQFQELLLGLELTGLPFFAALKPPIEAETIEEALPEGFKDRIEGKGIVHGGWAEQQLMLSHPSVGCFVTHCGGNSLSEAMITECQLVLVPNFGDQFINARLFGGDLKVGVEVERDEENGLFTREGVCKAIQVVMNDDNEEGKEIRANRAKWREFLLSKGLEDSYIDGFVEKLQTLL

With `O=c1ccn([C@@H]2O[C@H](COP(=O)(O)OP(=O)(O)O)[C@@H](O)[C@H]2O)c(=O)[nH]1` [UDP], the activity at 1000 µM is 4.2 ± 0.1%.
